Source: ChEMBL document CHEMBL5223095, “Structure activity relationship of N-1 substituted 1,5-naphthyrid-2-one analogs of oxabicyclooctane-linked novel bacterial topoisomerase inhibitors as broad-spectrum antibacterial agents (Part-9)” (Bioorg Med Chem Lett, 2022)
Values after ≈ are worked out from the molar mass of the structure shown.

Assays:
Assay type in all cases: functional
Staphylococcus aureus = test: Antibacterial activity against methicillin-resistant Staphylococcus aureus OITII-971 assessed as bacterial growth inhibition by CLSI protocol agar-based assay
Escherichia coli = test: Antibacterial activity against Escherichia coli ATCC 25922 assessed as bacterial growth inhibition by CLSI protocol agar-based assay
Streptococcus pneumoniae = test: Antibacterial activity against Streptococcus pneumoniae IID553 assessed as bacterial growth inhibition by CLSI protocol agar-based assay
Acinetobacter baumannii = test: Antibacterial activity against Acinetobacter baumannii IID876 assessed as bacterial growth inhibition by CLSI protocol agar-based assay
Pseudomonas aeruginosa = test: Antibacterial activity against Pseudomonas aeruginosa PAO1 assessed as bacterial growth inhibition by CLSI protocol agar-based assay
Enterococcus faecium = test: Antibacterial activity against Vanomycin-resistant Enterococcus faecium assessed as bacterial growth inhibition by CLSI protocol agar-based assay

Row | SMILES | MIC (Staphylococcus aureus) [µg/mL] | MIC (Escherichia coli) [µg/mL] | MIC (Streptococcus pneumoniae) [µg/mL] | MIC (Acinetobacter baumannii) [µg/mL] | MIC (Pseudomonas aeruginosa) [µg/mL] | MIC (Enterococcus faecium) [µg/mL]
1 | COc1ccc2ncc(F)c(CCC34CCC(NCc5ccc6c(n5)NC(=O)CO6)(CC3)CO4)c2n1 | 0.016 (≈ 0.0324 µM) | 1 (≈ 2.03 µM) | – | – | – | –
2 | O=C1COc2ccc(CNC34CCC(C[C@]5(O)Cn6c(=O)ccc7ncc(F)c5c76)(CC3)OC4)nc2N1 | 0.25 (≈ 0.493 µM) | 4 (≈ 7.88 µM) | – | – | – | –
3 | O=c1ccc2ncc(F)c3c2n1C[C@@]3(O)CC12CCC(NCc3cc4c(cn3)OCCO4)(CC1)CO2 | 0.5 (≈ 1.01 µM) | 16 (≈ 32.4 µM) | – | – | – | –
4 | O=C1COc2ccc(CNC34CCC(CCc5c(F)cnc6ccc(=O)n(C/C=N/O)c56)(CC3)OC4)nc2N1 | 0.25 (≈ 0.466 µM) | 4 (≈ 7.45 µM) | 0.5 (≈ 0.932 µM) | 2 (≈ 3.73 µM) | 8 (≈ 14.9 µM) | 4 (≈ 7.45 µM)
5 | O=C(NC12CCC(CCc3c(F)cnc4ccc(=O)n(CCO)c34)(CC1)OC2)c1cc2c(cn1)OCCO2 | 1 (≈ 1.91 µM) | > 32 | 2 (≈ 3.81 µM) | 32 (≈ 61 µM) | > 32 | 16 (≈ 30.5 µM)
6 | O=c1ccc2ncc(F)c(CCC34CCC(NCc5cnc(-c6cccnc6)s5)(CC3)CO4)c2n1CCO | > 16 | > 16 | > 16 | > 16 | > 32 | > 16
7 | O=C(O)Cn1c(=O)ccc2ncc(F)c(CCC34CCC(NCc5ccc6c(n5)NC(=O)CO6)(CC3)CO4)c21 | 16 (≈ 29.8 µM) | > 64 | 64 (≈ 119 µM) | > 64 | > 64 | > 64
8 | O=C1COc2ccc(C(=O)NC34CCC(CCc5c(F)cnc6ccc(=O)n(CCO)c56)(CC3)OC4)nc2N1 | 0.125 (≈ 0.233 µM) | 16 (≈ 29.8 µM) | 1 (≈ 1.86 µM) | 4 (≈ 7.44 µM) | 32 (≈ 59.5 µM) | 4 (≈ 7.44 µM)
9 | CCOC(=O)Cn1c(=O)ccc2ncc(F)c(CCC34CCC(NCc5ccc6c(n5)NC(=O)CO6)(CC3)CO4)c21 | 0.063 (≈ 0.111 µM) | 8 (≈ 14.1 µM) | 1 (≈ 1.77 µM) | 1 (≈ 1.77 µM) | 32 (≈ 56.6 µM) | 8 (≈ 14.1 µM)
10 | O=c1ccc2ncc(F)c(CCC34CCC(NCc5cc6c(cn5)OCCC6)(CC3)CO4)c2n1CCO | 0.063 (≈ 0.124 µM) | 8 (≈ 15.7 µM) | 0.25 (≈ 0.492 µM) | 1 (≈ 1.97 µM) | > 64 | 4 (≈ 7.86 µM)
11 | CC(C)(O)Cn1c(=O)ccc2ncc(F)c(CCC34CCC(NCc5ccc6c(n5)NC(=O)CO6)(CC3)CO4)c21 | 8 (≈ 14.5 µM) | > 64 | 64 (≈ 116 µM) | 64 (≈ 116 µM) | > 64 | > 64
12 | O=c1ccc2ncc(F)c(CCC34CCC(NCc5cnc(-c6ccncc6)s5)(CC3)CO4)c2n1CCO | > 32 | > 32 | > 32 | > 32 | > 32 | > 32
13 | O=c1ccc2ncc(F)c(CCC34CCC(NCc5cnc(-c6ncccn6)s5)(CC3)CO4)c2n1CCO | 1 (≈ 1.86 µM) | > 16 | 4 (≈ 7.45 µM) | > 16 | > 32 | > 16
14 | O=C1COc2ccc(CNC34CCC(CCc5c(F)cnc6ccc(=O)n(CCO)c56)(CC3)OC4)nc2N1 | 0.063 (≈ 0.12 µM) | 2 (≈ 3.82 µM) | 0.5 (≈ 0.955 µM) | 0.5 (≈ 0.955 µM) | 8 (≈ 15.3 µM) | 2 (≈ 3.82 µM)
15 | CN(C)CCn1c(=O)ccc2ncc(F)c(CCC34CCC(NCc5ccc6c(n5)NC(=O)CO6)(CC3)CO4)c21 | 0.5 (≈ 0.908 µM) | 1 (≈ 1.82 µM) | 1 (≈ 1.82 µM) | 0.5 (≈ 0.908 µM) | 8 (≈ 14.5 µM) | 16 (≈ 29.1 µM)
16 | O=C1COc2ccc(CNC34CCC(CCc5c(F)cnc6ccc(=O)n(CCN7CCOCC7)c56)(CC3)OC4)nc2N1 | 1 (≈ 1.69 µM) | > 16 | 2 (≈ 3.37 µM) | 8 (≈ 13.5 µM) | > 16 | 16 (≈ 27 µM)
17 | N#CCn1c(=O)ccc2ncc(F)c(CCC34CCC(NCc5ccc6c(n5)NC(=O)CO6)(CC3)CO4)c21 | 0.016 (≈ 0.0309 µM) | 1 (≈ 1.93 µM) | 0.25 (≈ 0.482 µM) | 0.25 (≈ 0.482 µM) | 4 (≈ 7.71 µM) | 2 (≈ 3.86 µM)
18 | O=C(NC12CCC(CCc3c(F)cnc4ccc(=O)n(CCO)c34)(CC1)OC2)c1cc2c(cn1)OCCC2 | 0.5 (≈ 0.957 µM) | > 32 | 1 (≈ 1.91 µM) | 8 (≈ 15.3 µM) | > 32 | 16 (≈ 30.6 µM)
19 | O=c1ccc2ncc(F)c(CCC34CCC(NCc5ccc6nsnc6c5)(CC3)CO4)c2n1CCO | 0.125 (≈ 0.245 µM) | 32 (≈ 62.8 µM) | 1 (≈ 1.96 µM) | 4 (≈ 7.85 µM) | > 64 | 8 (≈ 15.7 µM)
20 | O=C1COc2ccc(CNC34CCC(CCc5ccnc6ccc(=O)n(CCO)c56)(CC3)OC4)nc2N1 | 2 (≈ 3.96 µM) | 8 (≈ 15.8 µM) | 4 (≈ 7.91 µM) | 8 (≈ 15.8 µM) | 32 (≈ 63.3 µM) | 16 (≈ 31.6 µM)
21 | CN(C)C(=O)Cn1c(=O)ccc2ncc(F)c(CCC34CCC(NCc5ccc6c(n5)NC(=O)CO6)(CC3)CO4)c21 | 1 (≈ 1.77 µM) | 32 (≈ 56.7 µM) | 4 (≈ 7.08 µM) | 8 (≈ 14.2 µM) | 64 (≈ 113 µM) | 32 (≈ 56.7 µM)

Row | SMILES | MIC (Staphylococcus aureus) [µg/mL] | MIC (Escherichia coli) [µg/mL] | MIC (Streptococcus pneumoniae) [µg/mL] | MIC (Acinetobacter baumannii) [µg/mL] | MIC (Pseudomonas aeruginosa) [µg/mL] | MIC (Enterococcus faecium) [µg/mL]
22 | NCCn1c(=O)ccc2ncc(F)c(CCC34CCC(NCc5ccc6c(n5)NC(=O)CO6)(CC3)CO4)c21 | 1 (≈ 1.91 µM) | 1 (≈ 1.91 µM) | 1 (≈ 1.91 µM) | 16 (≈ 30.6 µM) | 2 (≈ 3.83 µM) | 8 (≈ 15.3 µM)
23 | N#Cc1cnc2ccc(=O)n(CCO)c2c1CCC12CCC(NCc3ccc4c(n3)NC(=O)CO4)(CC1)CO2 | 0.125 (≈ 0.236 µM) | 4 (≈ 7.54 µM) | 1 (≈ 1.88 µM) | 1 (≈ 1.88 µM) | 16 (≈ 30.2 µM) | 4 (≈ 7.54 µM)
24 | C[C@@H]1CCc2cc(CNC34CCC(CCc5c(F)cnc6ccc(=O)n(CCO)c56)(CC3)OC4)ncc2O1 | 1 (≈ 1.91 µM) | > 64 | 1 (≈ 1.91 µM) | 64 (≈ 122 µM) | > 64 | 32 (≈ 61.2 µM)
25 | O=c1ccc2ncc(F)c(CCC34CCC(NCc5cc6c(cn5)OCCO6)(CC3)CO4)c2n1CCO | 0.125 (≈ 0.245 µM) | 16 (≈ 31.3 µM) | 0.5 (≈ 0.979 µM) | 4 (≈ 7.83 µM) | > 16 | 2 (≈ 3.92 µM)
26 | O=c1ccc2ncc(F)c(CCC34CCC(NCc5csc(-c6cccs6)n5)(CC3)CO4)c2n1CCO | 0.5 (≈ 0.925 µM) | 64 (≈ 118 µM) | 1 (≈ 1.85 µM) | 32 (≈ 59.2 µM) | > 32 | 16 (≈ 29.6 µM)
27 | O=c1ccc2ncc(F)c(CCC34CCC(NC/C=C/c5cc(F)ccc5F)(CC3)CO4)c2n1CCO | 0.031 (≈ 0.0604 µM) | 2 (≈ 3.89 µM) | 0.063 (≈ 0.123 µM) | 0.125 (≈ 0.243 µM) | 8 (≈ 15.6 µM) | 2 (≈ 3.89 µM)
28 | O=c1ccc2ncc(F)c(CCC34CCC(NCc5cnc(C6CCCCC6)s5)(CC3)CO4)c2n1CCO | > 32 | > 32 | > 32 | > 32 | > 16 | > 32
29 | CNC(=O)Cn1c(=O)ccc2ncc(F)c(CCC34CCC(NCc5ccc6c(n5)NC(=O)CO6)(CC3)CO4)c21 | 4 (≈ 7.26 µM) | 32 (≈ 58.1 µM) | 1 (≈ 1.82 µM) | 64 (≈ 116 µM) | 32 (≈ 58.1 µM) | 16 (≈ 29.1 µM)
30 | O=c1ccc2ncc(F)c(CCC34CCC(NCc5cnc(-c6ccsc6)s5)(CC3)CO4)c2n1CCO | 2 (≈ 3.7 µM) | > 32 | 2 (≈ 3.7 µM) | > 32 | > 32 | > 32
31 | COc1ccc2nc(CNC34CCC(CCc5c(F)cnc6ccc(=O)n(CCO)c56)(CC3)OC4)c(F)cc2n1 | > 16 | > 16 | > 16 | > 16 | > 16 | > 16
32 | C[C@H]1CCc2cc(CNC34CCC(CCc5c(F)cnc6ccc(=O)n(CCO)c56)(CC3)OC4)ncc2O1 | 1 (≈ 1.91 µM) | 64 (≈ 122 µM) | 2 (≈ 3.83 µM) | 16 (≈ 30.6 µM) | > 64 | 32 (≈ 61.2 µM)
33 | Cn1cc(-c2ncc(CNC34CCC(CCc5c(F)cnc6ccc(=O)n(CCO)c56)(CC3)OC4)s2)cn1 | 2 (≈ 3.71 µM) | > 32 | 8 (≈ 14.9 µM) | > 32 | > 32 | > 32
34 | O=c1ccc2nc(CNC34CCC(CCc5c(F)cnc6ccc(=O)n(CCO)c56)(CC3)OC4)c(F)cc2[nH]1 | > 16 | > 16 | > 16 | > 16 | > 16 | > 16
35 | O=c1ccc2ncc(F)c(CCC34CCC(NCc5ccc6nonc6c5)(CC3)CO4)c2n1CCO | 2 (≈ 4.05 µM) | > 64 | 32 (≈ 64.8 µM) | 64 (≈ 130 µM) | > 64 | 64 (≈ 130 µM)
36 | COc1ccc2nc(CNC34CCC(CCc5c(F)cnc6ccc(=O)n(CCO)c56)(CC3)OC4)c(F)c(C)c2n1 | 32 (≈ 56.6 µM) | 32 (≈ 56.6 µM) | 32 (≈ 56.6 µM) | 32 (≈ 56.6 µM) | 32 (≈ 56.6 µM) | 32 (≈ 56.6 µM)
37 | CS(=O)(=O)NCCn1c(=O)ccc2ncc(F)c(CCC34CCC(NCc5ccc6c(n5)NC(=O)CO6)(CC3)CO4)c21 | 0.5 (≈ 0.832 µM) | 16 (≈ 26.6 µM) | 1 (≈ 1.66 µM) | 16 (≈ 26.6 µM) | 32 (≈ 53.3 µM) | 8 (≈ 13.3 µM)
38 | NC(=O)Cn1c(=O)ccc2ncc(F)c(CCC34CCC(NCc5ccc6c(n5)NC(=O)CO6)(CC3)CO4)c21 | 4 (≈ 7.45 µM) | 32 (≈ 59.6 µM) | 4 (≈ 7.45 µM) | 64 (≈ 119 µM) | 16 (≈ 29.8 µM) | 64 (≈ 119 µM)
39 | O=c1ccc2ncc(F)c(CCC34CCC(NC[C@@H]5C[C@H]5c5cc(F)ccc5F)(CC3)CO4)c2n1CCO | 0.5 (≈ 0.948 µM) | 64 (≈ 121 µM) | 1 (≈ 1.9 µM) | 32 (≈ 60.7 µM) | > 64 | 16 (≈ 30.3 µM)
40 | O=c1ccc2ncc(F)c(CCC34CCC(NCc5cnc(-c6ccccn6)s5)(CC3)CO4)c2n1CCO | > 32 | > 32 | > 32 | > 32 | > 16 | > 32
41 | O=c1ccc2ncc(F)c(CCC34CCC(NCCCc5cc(F)ccc5F)(CC3)CO4)c2n1CCO | 0.125 (≈ 0.242 µM) | 16 (≈ 31 µM) | 0.5 (≈ 0.97 µM) | 1 (≈ 1.94 µM) | 64 (≈ 124 µM) | 16 (≈ 31 µM)
42 | O=c1ccc2ncc(=O)n3c2n1C[C@H]3CN1CCC(NCc2cc3c(cn2)OCCC3)CC1 [GEPOTIDACIN] | 0.25 (≈ 0.557 µM) | 2 (≈ 4.46 µM) | – | – | – | –
